From PMC9011347, “Small-Molecule Inhibitors Targeting Lipolysis in Human Adipocytes” (Journal of the American Chemical Society, 2022)

Tested on: lipoprotein lipase (LPL) and hepatic lipase (HL)
Test: Heparin-releasable TAG hydrolase activity in post-heparin plasma
Format: biochemical
Conditions: NG-497 100 µM, radiolabeled triolein
Description: Fig. S3: Investigation of off-target effects of NG-497 on structurally and functionally related lipid hydrolases. (a) PNPLA1-dependent formation of acylceramides was monitored in a cell-based assay in HEK293T cells. Experiments were performed in the presence or absence of NG-497 (40 µM) and the non-selective lipase inhibitor Orlistat (40 µM). Orlistat, but not NG-497, inhibited PNPLA1/CGI-58-dependent ω-O-acylceramide formation. (b-h) Enzymes were overexpressed in Expi293 cells and cell lysates were used as source of enzymatic activity. […] Experiments were performed in the presence or absence of NG-497 (100 µM) and the formation of reaction products was monitored. […]
Data were calculated relative to the basal activity detected in LacZ-transfected controls. […]
LPL activity was inhibited using an anti-LPL antibody. All data are presented as mean ± S.D. Statistical significance was determined via ANOVA followed by Bonferroni post hoc test ( ***, p < 0.001). […]
Released free fatty acids were quantified via NEFA C kit (Fujifilm Wako Chemicals, Neuss, Germany) and release of p-nitrophenol was measured at 405 nm. […] Cellular ω-O-acylceramide formation was monitored using [1-14C]linoleic acid as tracer. […] The activity of purified human pancreatic lipase (MilliporeSigma #SRE0028) was determined as previously described7 in the presence or absence of NG-497 (100µM) or Orlistat (20 µM). […]

CCOc1ccc(-c2cc(OC)cc(C(=O)OC(C)C)n2)cc1 [NG-497]
inhibition of heparin-releasable TAG hydrolase activity in human serum: did not observe inhibition
